According to patent publication US20220211594A1, “TOPICAL COMPOSITIONS” (DSM IP ASSETS B.V., priority 2019, published 2022):

What was measured:
C. albicans = assay: Preservation challenge test of inoculated O/W emulsion (ISO 11930), C. albicans; type: cell-based, Candida albicans; conditions: PTT: 0.4 wt.-%, HG & EHG: 0.6 wt.-%
Procedure: (§1) The evaluation of the preservation of a cosmetic formulation is based on inoculation of the formulation as outlined in table 1 with calibrated inocula (prepared from relevant strains of micro-organisms). Therefore, to each formulation 0.2 ml of calibrated inoculum is added to obtain between 1×10^4 cfu/ml and 1×10^7 cfu/ml or g for bacteria, and between 1×10^2 cfu/ml and 1×10^6 cfu/ml or g for C. albicans and A. brasiliensis in the formulation (final concentration), which is mixed thoroughly into the formulation to ensure a homogeneous distribution of the inoculum. Then the respective containers containing the inoculated formulations are stored @ 22.5±2.5° C. At each specified sampling interval (initial (T0), 7 days (T7) and 28 days (T28)) 1 g of the inoculated formulation is taken and a dilution prepared to perform the enumeration of surviving micro-organisms. Then, for each time and each strain/strain mixture, the average log value is calculated which is represented in tables 2-6. (Procedure: see ISO 11930, chapter 5.2.-5.6.3.4. (page 3-13))

A. brasiliensis = assay: Preservation challenge test of inoculated O/W emulsion (ISO 11930), A. brasiliensis; type: cell-based, Aspergillus brasiliensis
Procedure: as §1

[1] = system: Bacterial cocktail (E. Coli, P. aeruginosa, S. aureus); assay: Preservation challenge test of inoculated O/W emulsion (ISO 11930), bacterial cocktail; type: cell-based; conditions: PTT: 0.3 wt -%, HG & EHG: 0.4 wt.-%
Procedure: as §1

[2] = PTT: 0.1 wt.-%, HG & EHG: 0.9 wt.-%, time 0 days
[3] = PTT: 0.1 wt.-%, HG & EHG: 0.9 wt.-%, time 7 days
[4] = PTT: 0.1 wt.-%, HG & EHG: 0.9 wt.-%, time 28 days
[5] = PTT: 0.3 wt.-%, HG & EHG: 0.4 wt.-%, time 0 days
[6] = PTT: 0.3 wt.-%, HG & EHG: 0.4 wt.-%, time 7 days
[7] = PTT: 0.3 wt.-%, HG & EHG: 0.4 wt.-%, time 28 days
[8] = PTT: 0.4 wt.-%, HG & EHG: 0.6 wt.-%, time 0 days
[9] = PTT: 0.4 wt.-%, HG & EHG: 0.6 wt.-%, time 7 days
[10] = PTT: 0.4 wt.-%, HG & EHG: 0.6 wt.-%, time 28 days

| Structure (SMILES) | Average log [cfu/ml] (C. albicans; time 0 days) | Average log [cfu/ml] (C. albicans; time 7 days) | Average log [cfu/ml] (C. albicans; time 28 days) | Average log [cfu/ml] (A. brasiliensis; [2]) | Average log [cfu/ml] (A. brasiliensis; [3]) | Average log [cfu/ml] (A. brasiliensis; [4]) | Average log [cfu/ml] (A. brasiliensis; [5]) | Average log [cfu/ml] (A. brasiliensis; [6]) | Average log [cfu/ml] (A. brasiliensis; [7]) | Average log [cfu/ml] (A. brasiliensis; [8]) | Average log [cfu/ml] (A. brasiliensis; [9]) | Average log [cfu/ml] (A. brasiliensis; [10]) | Average log [cfu/ml] ([1]; time 0 days) | Average log [cfu/ml] ([1]; time 7 days) | Average log [cfu/ml] ([1]; time 28 days) |
| --- | --- | --- | --- | --- | --- | --- | --- | --- | --- | --- | --- | --- | --- | --- | --- |
| CC(C)CCCC(C)CCCC(C)CCCC(C)(O)C(O)CO (stereo not drawn) [PTT, 3,7,11,15-tetramethyl-hexadecane-1,2,3-triol] | 3.0 log [cfu/ml] | 6.8 log [cfu/ml] | 7.1 log [cfu/ml] | 2.1 log [cfu/ml] | 3.6 log [cfu/ml] | 4.4 log [cfu/ml] | 6.3 log [cfu/ml] | 5.7 log [cfu/ml] | 5.8 log [cfu/ml] | 1.7 log [cfu/ml] | 3.5 log [cfu/ml] | 4.5 log [cfu/ml] | 6.5 log [cfu/ml] | 2 log [cfu/ml] | 2 log [cfu/ml] |
| CCCCCCOCC(O)CO (stereo not drawn) [HG, 3-(hexyloxy)-1,2-propanediol] | 4.3 log [cfu/ml] | 3.6 log [cfu/ml] | 3.1 log [cfu/ml] | 4.2 log [cfu/ml] | 1.3 log [cfu/ml] | 0 log [cfu/ml] | 4.7 log [cfu/ml] | 3.7 log [cfu/ml] | 3.5 log [cfu/ml] | 4.3 log [cfu/ml] | 3.6 log [cfu/ml] | 3.1 log [cfu/ml] | 4.9 log [cfu/ml] | 5.7 log [cfu/ml] | 5.6 log [cfu/ml] |
| CCCCC(CC)COCC(O)CO (stereo not drawn) [EHG, Ethylhexyl glycerine] | 3.2 log [cfu/ml] | 6.1 log [cfu/ml] | 6.0 log [cfu/ml] | 4.6 log [cfu/ml] | 4.2 log [cfu/ml] | 4.5 log [cfu/ml] | 4.6 log [cfu/ml] | 4.6 log [cfu/ml] | 4.6 log [cfu/ml] | 4.6 log [cfu/ml] | 4.4 log [cfu/ml] | 4.6 log [cfu/ml] | 5.3 log [cfu/ml] | 7.0 log [cfu/ml] | 6.5 log [cfu/ml] |
